{"source": "patent US20200383970A1", "about": "“Morphinan Derivatives with High Oral Bioavailability” (Alkermes Pharma Ireland Limited, priority 2009, published 2020)", "key": {"[1]": {"test": "Pharmacokinetic analysis following PO administration in monkey"}, "[2]": {"test": "Pharmacokinetic analysis following PO administration in rat"}, "[3]": {"test": "Pharmacokinetic analysis following PO administration in dog", "format": "in vivo", "procedure": "Example 2: Pharmacokinetic analysis of Compound 1: The PK of Compound 1 and the reference compound Naltrexone was determined following IV (1 mg/kg) and PO (10 mg/kg or 1 mg/kg) administration. Concentrations of Compound 1 and naltrexone were determined by LC-MS/MS. The PK parameters were determined by noncompartmental analysis using WiNonlin (v5.1). FIGS. 2-4 show the PK profiles of naltrexone and Compound 1."}, "[4]": {"settings": "dog, oral dose 1 (mg); Reuning et at. J Pharm Sci. 1979; cited from earlier work"}}, "note": "Where two headings read alike, the source gives them in different places.", "data": [{"molecule": "NC(=O)c1ccc2c(c1O)[C@]13CCN(CC4CC4)[C@H](C2)[C@]1(O)CCC(=O)C3", "note": "[Compound 1]", "values": [{"measurement": "AUC(0-inf)", "setting": "[1]; monkey, in vivo, po, 10 mg/kg", "value": 4470, "unit": "ng·h/mL"}, {"measurement": "Cmax", "setting": "[1]; monkey, in vivo, po, 10 mg/kg", "value": 627, "unit": "ng/mL"}, {"measurement": "bioavailability", "setting": "[1]; monkey, in vivo, po, 10 mg/kg", "value": 68, "unit": "%"}, {"measurement": "half-life", "setting": "[1]; monkey, in vivo, po, 10 mg/kg", "value": 5.4, "unit": "h"}, {"measurement": "improvement in oral bioavailability in comparison with naltrexone", "setting": "[1]; monkeys, oral administration", "value": "over 4 fold"}, {"measurement": "AUC(0-inf)", "setting": "[2]; rat, in vivo, po, 10 mg/kg", "value": 1320, "unit": "ng·h/mL"}, {"measurement": "Cmax", "setting": "[2]; rat, in vivo, po, 10 mg/kg", "value": 929, "unit": "ng/mL"}, {"measurement": "bioavailability", "setting": "[2]; rat, in vivo, po, 10 mg/kg", "value": 15, "unit": "%"}, {"measurement": "half-life", "setting": "[2]; rat, in vivo, po, 10 mg/kg", "value": 1.2, "unit": "h"}, {"measurement": "improvement in oral bioavailability in comparison with naltrexone", "setting": "[2]; rats, oral administration", "value": 4, "unit": "fold"}, {"measurement": "AUC(0-inf)", "setting": "[3]; dog, in vivo, po, 1 mg/kg", "value": 491, "unit": "ng·h/mL"}, {"measurement": "half-life", "setting": "[3]; dog, in vivo, po, 1 mg/kg", "value": 3.2, "unit": "h"}, {"measurement": "improvement in oral bioavailability in comparison with naltrexone", "setting": "[3]; dogs, oral administration", "value": "over 50 fold"}, {"measurement": "Cmax", "setting": "[3]; in vivo, 1 mg/kg, dog, oral dose 1 (mg)", "value": 104, "unit": "ng/mL"}, {"measurement": "bioavailability", "setting": "[3]; in vivo, 1 mg/kg, dog, oral dose 1 (mg), read-out: Bioavailability (F %)", "value": 66, "unit": "%"}]}, {"molecule": "O=C1CC[C@@]2(O)[C@H]3Cc4ccc(O)c5c4[C@@]2(CCN3CC2CC2)[C@H]1O5", "note": "[Naltrexone, reference compound]", "values": [{"measurement": "AUC(0-inf)", "setting": "[1]; monkey, in vivo, po, 10 mg/kg", "value": 54, "unit": "ng·h/mL"}, {"measurement": "Cmax", "setting": "[1]; monkey, in vivo, po, 10 mg/kg", "value": 13, "unit": "ng/mL"}, {"measurement": "bioavailability", "setting": "[1]; monkey, in vivo, po, 10 mg/kg", "value": 13, "unit": "%"}, {"measurement": "AUC∞", "setting": "[4]", "value": 4.2, "unit": "ng·h/mL"}, {"measurement": "Bioavailability (F %)", "setting": "[4]", "value": 1.1, "unit": "%"}, {"measurement": "Cmax", "setting": "[4]", "value": 2.7, "unit": "ng/mL"}, {"measurement": "AUC(0-inf)", "setting": "[2]; rat, in vivo, po, 10 mg/kg", "value": 150, "unit": "ng·h/mL"}, {"measurement": "Cmax", "setting": "[2]; rat, in vivo, po, 10 mg/kg", "value": 61.6, "unit": "ng/mL"}, {"measurement": "bioavailability", "setting": "[2]; rat, in vivo, po, 10 mg/kg", "value": 3, "unit": "%"}]}]}
